Laboratory results taken from patent US20100305095A1, “Use of HPPD Inhibitors in the Treatment of Depression and/or Withdrawal Symptoms Associated with Addictive Drugs” (priority 2006, published 2010).

Key:
Format in all cases: in vivo
[1] = system: plasma tyrosine, dopamine levels and dopamine turnover; assay: Plasma tyrosine, dopamine levels and dopamine turnover in orally dosed mice; details: 0.1 mg/Kg oral; for plasma tyrosine levels: vs vehicle control
Experimental: Illustration of increase in levels and turnover of dopamine as a mechanism for treatment/prevention of depression and treatment of the withdrawal symptoms associated with withdrawal from an addictive drug such as cocaine. 10 mice were dosed orally with 0.1 mg/Kg of 2-(2-Nitro-4-Trifluoromethylbenzoyl)-1,3-Cyclohexanedione. As a control, 10 mice were orally dosed with the dosing vehicle. After 24 hours, plasma tyrosine levels were identified. Dopamine levels and dopamine turnover were also analysed. 10 mice were dosed orally with 0.1 mg/Kg of 2-(2-Nitro-4-Trifluoromethylbenzoyl)-1,3-Cyclohexanedione. As a control, 9 mice were orally dosed with the dosing vehicle. After 6 hours, plasma tyrosine levels were identified. Dopamine levels and dopamine turnover were also analysed.

[2] = system: plasma tyrosine, dopamine turnover and noradrenaline levels; assay: Plasma tyrosine, dopamine turnover and noradrenaline levels in orally dosed rats; details: 2 mg/Kg oral, after 24 hours
Experimental: 10 rats were dosed orally with 2 mg/Kg of 2-(2-Nitro-4-Trifluoromethylbenzoyl)-1,3-Cyclohexanedione. As a control, 10 rats were orally dosed with the dosing vehicle. After 24 hours, plasma tyrosine levels were identified. Dopamine levels and dopamine turnover and noradrenaline levels were also analysed.

[3] = system: rats; assay: Activity cage with automatic infrared activity monitoring (rearing, activity, mobility) in rats; details: 2 mg/Kg oral, after 4 hours, one hour in activity cage
Experimental: Analysis of stimulatory effect of HPPD inhibitors as a mechanism for the treatment of withdrawal symptoms associated with an addictive drug such as nicotine. 12 rats were dosed orally with 2 mg/Kg of 2-(2-Nitro-4-Trifluoromethylbenzoyl)-1,3-Cyclohexanedione. As a control, 12 rats were orally dosed with the dosing vehicle. After 4 hours, animals were each placed in an activity cage for one hour, containing an automatic activity monitoring system with infrared beams to determine activity and mobility.

SMILES: O=C1CCCC(O)=C1C(=O)c1ccc(C(F)(F)F)cc1[N+](=O)[O-] [2-(2-Nitro-4-Trifluoromethylbenzoyl)-1,3-Cyclohexanedione]
- dopamine increase compared with the mean of the controls ([1]; after 6 hours): up to 15%
- dopamine turnover increase compared with the mean of the controls ([1]; after 6 hours): up to 15%
- plasma tyrosine levels ([1]; after 6 hours): elevated
- dopamine increase compared with the mean of the controls ([1]; after 24 hours): up to 16%
- dopamine turnover increase compared with the mean of the controls ([1]; after 24 hours): up to 27%
- plasma tyrosine levels ([1]; after 24 hours): elevated
- dopamine turnover increase in the treated compared with the control group [2]: 25%
- noradrenaline increase compared with the mean of the controls ([2]; cortex): up to 76%
- noradrenaline increase compared with the mean of the controls ([2]; hypothalamus): ≤ 21%
- plasma tyrosine levels ([2]; vs vehicle control): elevated
- active time, decrease compared with the control group [3]: ~27%
- activity counts, decrease compared with the control group [3]: approximately 43%
- centre rearing counts, increase compared with the control group [3]: 63%
- effect on rearing behaviour [3]: mild stimulatory effect
- mean rearing counts, increase compared with the control group [3]: 91%
- mobile time, decrease compared with the control group [3]: ~49%
- rearing time, increase compared with the control group [3]: 79%
